In publication PMC4949396, “The effects of apremilast on the QTc interval in healthy male volunteers: a formal, thorough QT study” (International Journal of Clinical Pharmacology and …, 2016):
Where two headings read alike, the source gives them in different places. Marks after values point to notes of the source that are not given here.

How the values were obtained:
[1] = test system: healthy male subjects; assay: thorough QT/QTc study, 24-hour digital Holter ECG (QTc, HR, PR); details: for effect on the QT/QTc interval: overall conclusion of the study; for decrease of time-matched, baseline-adjusted LS mean PR interval (ΔΔPR): 2 hours postdose
Experimental: This was a single-center, randomized, crossover study with 4 treatments, 4 periods, and 4 sequences conducted in healthy male subjects. Apremilast (Otezla; Celgene Corporation, Summit, NJ, USA) was administered in a double-blind manner with matching placebo, and moxifloxacin was administered in an open-label manner. The core central electrocardiogram (ECG) laboratory staff, including those reading the ECGs, was blinded to treatment, sequence time, and subject identifiers.
The 4 treatments evaluated in this study included an apremilast-matched placebo administered twice daily (b.i.d.) for 9 doses (~ 5 days), a clinically relevant dose of apremilast 30 mg administered b.i.d. for 9 doses, a supratherapeutic dose of apremilast 50 mg administered b.i.d. for 9 doses, and placebo administered on days 1 – 4 followed by a single dose of moxifloxacin 400 mg on day 5. Subjects fasted for at least 8 hours before the morning dose or before the start of Holter monitoring on days –1 and 5.
ECGs were analyzed for ventricular HR, PR, QRS, RR, and QT intervals and morphological changes. Mean of the triplicate ECGs at each nominal time point was used for all reporting and analysis; however, individual values were used to calculate the correction coefficient (γ) for QTcI. The QTc corrections were individual correction by QTcI = QT/RR^γ, Fridericia’s by QTcF = QT/RR^0.33, and Bazett’s by QTcB = QT/RR^0.5. Individual correction coefficient, γ, was estimated using linear regression of log QT on log RR for each subject using all baseline ECG assessments collected before day 1 dosing in period 1 within a subject. Change from baseline was calculated as the average of the three predose assessments on day 1 of the corresponding treatment period subtracted from the value (i.e., QTc) on day 5 at a given time t. Double-delta (ΔΔ) values for various cardiac parameters (i.e., ΔΔQTcI, ΔΔQTcB, etc.) were determined as the change from baseline value relative to placebo at the same scheduled time.
At each time point, difference in least-squares (LS) means was estimated between the LS means of each apremilast dose and placebo (with placebo as reference). Two-sided 90% confidence intervals (CIs) were produced for the comparisons.
The effect of QTcI for moxifloxacin was assessed at 1, 1.5, 2, 3, and 4 hours postdose to assess assay sensitivity. At each time point, the ΔΔ value was estimated between the LS means of moxifloxacin and placebo. […] If at least one of the CIs completely exceeded 5 ms, then the assay was declared sensitive.
For secondary analyses, a Student’s t-test was performed comparing each dose of apremilast vs. placebo and between moxifloxacin and placebo at each time point. Two-sided 90% CIs were produced for the comparisons. The effect of apremilast on QTcF, QTcB, HR, PR, and QT was assessed using the same linear mixed model from the primary analysis. […] The model included treatment group, period, sequence, and baseline ECG interval as a covariate, and subject nested within sequence as a random effect.
If a subject experienced > 1 episode of a particular outlier event, the subject was counted only once for that event.

[2] = plasma pharmacokinetics on day 5 after multiple oral doses of apremilast in healthy male subjects; type: in vivo, human; details: for AUC / AUC0–τ, geometric mean (geometric CV%): τ 12 hours; for AUC: read-out: AUC0–τ, geometric mean (geometric CV%); for Tmax: read-out: tmax, median (minimum–maximum)
Experimental: PK parameters were derived using noncompartmental methods with WinNonlin® Professional version 5.1.2 (Pharsight Corporation, Mountain View, CA, USA). […] For determination of PK parameters (terminal elimination rate constant (Kel), time to maximum plasma concentration (tmax), and terminal half-life (t1/2)), plasma concentrations for apremilast and its major metabolites below the limit of quantitation (BLQ) were treated as missing except for the calculation of area under the plasma concentration-time curve (AUC). To calculate AUC, BLQ or missing concentrations in the beginning and end of profile were replaced with zero, and BLQ or missing concentrations in the middle of the profile were interpolated.
Blood samples were collected in lithium heparin tubes and plasma was separated. The plasma samples, fortified with Sorensen’s buffer (25 mM citrate, pH 1.5) containing amastatin 20 µM (1 : 1/v : v), were analyzed by two validated liquid chromatography/tandem mass spectrometry methods, one for determination of apremilast and the other for its metabolites M12 (CC-16166), M14 (CC-16793), and M16 (CC-16557).

[3] = set-up: method as in PMID 21859393; details: cited from earlier work
[4] = biological target: T1, hERG potassium channel (Homo sapiens, UniProt Q12809); assay: voltage-clamp study of hERG current in HEK293 cells expressing hERG; type: cell-based
T1 construct: expressed in transfected cells; host or cells: HEK-293 cells stably expressing hERG
T1 sequence (Q12809 whole entry): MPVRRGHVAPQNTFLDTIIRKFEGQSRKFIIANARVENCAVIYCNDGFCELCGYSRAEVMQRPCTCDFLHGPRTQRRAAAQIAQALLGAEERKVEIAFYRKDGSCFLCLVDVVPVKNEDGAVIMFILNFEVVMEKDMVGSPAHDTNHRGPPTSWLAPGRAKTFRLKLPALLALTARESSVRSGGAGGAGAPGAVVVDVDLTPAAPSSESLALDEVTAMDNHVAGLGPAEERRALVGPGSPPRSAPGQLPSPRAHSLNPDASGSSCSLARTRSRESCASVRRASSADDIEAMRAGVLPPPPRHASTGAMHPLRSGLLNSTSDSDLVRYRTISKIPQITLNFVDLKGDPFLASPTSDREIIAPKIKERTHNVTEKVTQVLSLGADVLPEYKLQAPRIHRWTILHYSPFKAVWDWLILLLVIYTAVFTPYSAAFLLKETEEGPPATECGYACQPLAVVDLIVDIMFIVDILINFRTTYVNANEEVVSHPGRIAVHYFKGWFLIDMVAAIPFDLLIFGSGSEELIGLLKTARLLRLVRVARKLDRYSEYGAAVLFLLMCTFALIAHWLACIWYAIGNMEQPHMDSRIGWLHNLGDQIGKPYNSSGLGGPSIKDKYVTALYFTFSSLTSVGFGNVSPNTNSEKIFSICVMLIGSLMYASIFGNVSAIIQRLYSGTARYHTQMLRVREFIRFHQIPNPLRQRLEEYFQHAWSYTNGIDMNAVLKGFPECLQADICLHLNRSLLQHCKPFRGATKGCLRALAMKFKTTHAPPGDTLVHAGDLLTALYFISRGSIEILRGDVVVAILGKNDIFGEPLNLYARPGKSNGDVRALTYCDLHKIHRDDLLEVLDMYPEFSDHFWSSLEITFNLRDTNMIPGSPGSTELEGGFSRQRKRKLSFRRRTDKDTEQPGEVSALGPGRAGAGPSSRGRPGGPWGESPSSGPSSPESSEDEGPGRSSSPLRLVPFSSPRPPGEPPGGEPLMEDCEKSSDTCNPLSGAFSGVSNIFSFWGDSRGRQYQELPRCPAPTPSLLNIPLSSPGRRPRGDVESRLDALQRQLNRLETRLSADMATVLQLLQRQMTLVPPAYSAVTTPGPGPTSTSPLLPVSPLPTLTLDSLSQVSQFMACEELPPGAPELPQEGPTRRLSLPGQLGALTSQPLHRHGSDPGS
From the text: This IC50 value is > 2 orders of magnitude greater than the maximum plasma concentration (Cmax) values observed in healthy male subjects and in PsA or rheumatoid patients at the highest doses studied. Prolongation of the QT interval is associated with a rare but dangerous ventricular arrhythmia, torsade de pointes, and drug-induced prolongation of the QT interval represents a significant risk. The current study was undertaken to provide definitive evaluation of the clinical potential for prolongation of the QT interval with apremilast.
Furthermore, a structure-activity relationship study has shown that the structure of a PDE4 inhibitor can be optimized for high-potency PDE4 inhibition and minimize or eliminate its affinity for hERG channel by targeted modification of pharmacophores. The structure of apremilast was optimized for PDE4 inhibition and minimal affinity for the hERG channel.

[5] = test system: healthy male subjects; assay: safety assessments (adverse events, vital signs, laboratory tests); type: in vivo, human; details: up to doses of 50 mg twice daily
Experimental: Safety assessments were performed at clinic check-in, periodically throughout each treatment period, and at the end-of-study visit and included the measurement of vital signs, recording of standard 12-lead ECGs, collection of samples for clinical laboratory tests, and physical examinations. Adverse events (AEs) and concomitant medication use were assessed and recorded throughout the study.

[6] = test system: healthy male subjects; assay: exploratory PK/PD relationship between ΔΔQTcI and plasma concentration (linear mixed-effect model); type: in vivo, human; details: for relationship between changes in QT/QTc interval and plasma concentration: in vivo; for estimated slope (SE) of ΔΔQTcI vs plasma concentration: linear regression, random effect model, pooled doses
Experimental: The PK/PD analysis was performed using a linear mixed-effect model to explore the relationship between the ΔΔQTcI and plasma concentrations for apremilast, M12, M14, and M16, and to estimate the population slope (β) and standard error of slope (SEβ). The expected maximum ΔΔQTcI effect for each dose and each analyte was estimated using the slope and average Cmax with one-sided upper limit 95% CIs.

[7] = set-up: method as in PMID 26097790; details: 30 mg b.i.d., cited from earlier work
[8] = apremilast 50 mg b.i.d., day 5, plasma
[9] = male, human, oral, apremilast 30 mg b.i.d., day 5, plasma
[10] = male, human, oral, apremilast 50 mg b.i.d., day 5, plasma
[11] = both apremilast doses, all time points
[12] = both apremilast doses, all values
[13] = patients with rheumatoid arthritis or PsA, n = 15
[14] = apremilast 30 mg b.i.d., day 5, plasma

With `COc1c(N2C[C@@H]3CCCN[C@@H]3C2)c(F)cc2c(=O)c(C(=O)O)cn(C3CC3)c12` [moxifloxacin] the “effect on the QT/QTc interval” value [1] was “significantly increased the QT/QTc interval”.

For `CCOc1cc([C@@H](CS(C)(=O)=O)N2C(=O)c3cccc(NC(C)=O)c3C2=O)ccc1OC` [apremilast, (S)-N-[2-[1-(3-ethoxy-4-methoxyphenyl)-2-methanesulfonylethyl]-1,3-dioxo-2,3-dihydro-1H-isoindol-4-yl] acetamide], the “increase of AUC with increasing dose” value ([2]; 50 mg b.i.d. vs 30 mg b.i.d.) was ~ 1.5 times, the “increase of Cmax with increasing dose” value ([2]; 50 mg b.i.d. vs 30 mg b.i.d.) was ~ 1.4 times and the “t1/2, geometric mean (geometric CV%)” value [2, 8] was 7.28 (29.1) h. It also gave an AUC [2, 9] of 2260 ng·h/mL, a half-life ([2]; male, human, oral, apremilast 30 mg b.i.d., day 5, plasma, read-out: t1/2, geometric mean (geometric CV%) (converted)) of 6.41 h and a Tmax [2, 9] of 2 h. The AUC [2, 10] was 3450 ng·h/mL, the Tmax [2, 10] was 2 h and the Cmax ([2]; male, human, plasma, oral, 30 mg, apremilast 30 mg b.i.d., day 5, plasma, read-out: Cmax, geometric mean (geometric CV%)) was 352 ng/mL. For the same molecule, the Cmax ([2]; male, human, plasma, oral, 50 mg, apremilast 50 mg b.i.d., day 5, plasma, read-out: Cmax, geometric mean (geometric CV%)) was 507 ng/mL, the Cmax ([2]; male, human, plasma, oral, 50 mg, healthy subjects, 50 mg b.i.d., read-out: maximum Cmax) was 1060 ng/mL and the half-life ([2]; male, human, plasma, oral, across both doses (30 and 50 mg b.i.d.), read-out: mean t1/2) was 6 to 7 h. The AUC(0-t) ([2]; male, human, plasma, oral, healthy subjects, 50 mg b.i.d., read-out: maximum AUC0–12) was 9350 ng·h/mL, the “LS mean ΔΔQTcI” value ([1]; apremilast 30 mg b.i.d., day 5, all time points) was “–4.2 to 0.7 ms” and the “increase of time-matched, baseline-adjusted LS mean HR (ΔΔHR)” value ([1]; apremilast 30 mg dose, 2 hours after administration) was 3.1 bpm. The “decrease of time-matched, baseline-adjusted LS mean PR interval (ΔΔPR)” value ([1]; apremilast 30 mg dose) was 2.8 ms, the “decrease of time-matched, baseline-adjusted LS mean PR interval (ΔΔPR)” value ([1]; apremilast 50 mg dose) was 3.5 ms and the “increase of time-matched, baseline-adjusted LS mean HR (ΔΔHR)” value ([1]; apremilast 50 mg dose, 3 hours after administration) was 4.4 bpm. The “LS mean ΔΔQTcI” value ([1]; both apremilast doses (30 and 50 mg b.i.d.), all time points) was less than 1 ms, the “upper limit of two-sided 90% CI of ΔΔQTcB” value [1, 11] was “below 10 ms” and the “upper limit of two-sided 90% CI of ΔΔQTcF” value [1, 11] was “below 10 ms”. For the same molecule, the “LS mean ΔΔQTcB” value [1, 12] was less than 5 ms, the “LS mean ΔΔQTcF” value [1, 12] was less than 1 ms and the “subjects with maximum on-treatment QT/QTc interval > 480 ms or change from baseline > 60 ms” value ([1]; categorical analysis, while receiving apremilast) was “No subject”. The “effect on the QT/QTc interval” value [1] was “did not prolong the QT interval”, the half-life ([3]; humans) was 6 to 9 h and the “Hill coefficient of hERG current inhibition” value ([4]; HEK293 cells expressing hERG) was 0.9. The IC50 ([4]; HEK293 cells expressing hERG, read-out: hERG current inhibition, estimated half maximal inhibitory concentration (IC50)) was 184 µM, the IC50 ([4]; HEK293 cells expressing hERG, same value in mass units, read-out: hERG current inhibition, estimated IC50 (converted)) was 184 µM and the “affinity for the hERG channel” value ([4]; voltage-clamp, HEK-293 cells stably expressing hERG) was “low affinity”. For the same molecule, the “hERG IC50 relative to Cmax at the highest doses studied” value ([4]; vs Cmax in healthy male subjects and PsA or rheumatoid patients) was > 2 orders of magnitude, the safety and tolerability [5] was “safe and well tolerated” and the “relationship between changes in QT/QTc interval and plasma concentration” value [6] was “No trend or relationship”. The “estimated slope (SE) of ΔΔQTcI vs plasma concentration” value [6] was “–0.0016 (0.0027)”, the “maximum AUC0–12” value ([7]; PsA and psoriasis patients) was 8,280 ng×h/mL and the “maximum Cmax” value ([7]; PsA and psoriasis patients) was 981 ng/mL. The “geometric mean Cmax” value [7, 13] was 554 ng/mL and the “mean AUC0–12” value [7, 13] was 3,670 ng×h/mL.

With “O-des-methyl-[S]-CC-10004-glucuronide [M12]” the “t1/2, geometric mean (geometric CV%)” value [2, 14] was 12.18 (25.9)^c h, the “tmax, median (minimum–maximum)” value [2, 14] was 3.0 (1.0 – 12.0) h and the “AUC0–τ, geometric mean (geometric CV%)” value [2, 14] was 3,930 (23.9) ng×h/mL. The “Cmax, geometric mean (geometric CV%)” value [2, 8] was 659.1 (21.0) ng/mL, the “t1/2, geometric mean (geometric CV%)” value [2, 8] was 12.79 (29.0)^e h and the “tmax, median (minimum–maximum)” value [2, 8] was 3.0 (0.5 – 6.0) h. The “AUC0–τ, geometric mean (geometric CV%)” value [2, 8] was 5,968 (20.0) ng×h/mL, the “AUC of metabolite relative to apremilast” value ([2]; plasma, day 5) was ~ 1.7 fold and the “Cmax of metabolite relative to apremilast” value ([2]; plasma, day 5) was ~ 1.25 fold. The pharmacological activity ([3]; glucuronide metabolites) was “not pharmacologically active”, the half-life ([3]; humans) was ~ 16 hours and the “metabolite to total radioactivity ratio” value ([3]; humans) was ~ 39%. The “relationship between changes in QT/QTc interval and plasma concentration” value [6] was “No trend or relationship” and the “estimated slope (SE) of ΔΔQTcI vs plasma concentration” value [6] was “–0.0006 (0.0028)”.
